Measured values from ChEMBL document CHEMBL1158225, “Antiplatelet flavonoids from seeds of Psoralea corylifolia” (J Nat Prod, 1996).
Calls of active or inactive are those of the source. No cut-off for these calls is given here.

Experiments:
Assay type in all cases: functional, cell-based
Settings in all cases: Oryctolagus cuniculus
[1] = (§1) Antiplatelet activity against rabbit platelet assessed as inhibition of platelet-activating factor-induced platelet aggregation preincubated for 3 mins by turbidimetric method
[2] = tested on: Platelet; assay: Antiplatelet activity against rabbit platelet assessed as inhibition of collagen-induced platelet aggregation at 300 uM preincubated for 3 mins by turbidimetric method
[3] = tested on: Platelet; assay: Antiplatelet activity against rabbit platelet assessed as inhibition of platelet-activating factor-induced platelet aggregation at 300 uM preincubated for 3 mins by turbidimetric method
[4] = tested on: Platelet; assay: Antiplatelet activity against rabbit platelet assessed as inhibition of arachidonic acid-induced platelet aggregation at 300 uM preincubated for 3 mins by turbidimetric method
[5] = Antiplatelet activity against rabbit platelet assessed as inhibition of collagen-induced platelet aggregation preincubated for 3 mins by turbidimetric method
[6] = Antiplatelet activity against rabbit platelet assessed as inhibition of arachidonic acid-induced platelet aggregation preincubated for 3 mins by turbidimetric method
[7] = tested on: Platelet; assay: as §1

IC50 [1] [µM] | IC50 [5] [µM] | IC50 [6] [µM] | Structure (SMILES) | other results
1.1 |  |  | CCCCCCCCCCCCCCCCCCNC(=O)OCC(COP(=O)([O-])OCC[n+]1ccsc1)OC (configuration not stated) | 
 |  |  | CC(C)=CCc1cc2c(cc1O)O[C@H](c1ccc(O)cc1)CC2=O | Activity [2]: inactive; Activity [3]: inactive; Activity [4]: inactive
 | 30.5 |  | CC(=O)Oc1ccccc1C(=O)O [ASPIRIN] | 
41.6 | 65.1 | 0.5 | CC(C)=CCc1c(O)ccc(C(=O)/C=C/c2ccc(O)cc2)c1O [ISOBAVACHALCONE] | 
2.5 | 62.4 | 7.8 | CC(C)=CCc1cc(-c2coc3cc(O)ccc3c2=O)ccc1O [NEOBAVAISOFLAVONE] | Activity [7]: Dose-dependent effect
